Reference: patent US20250101038A1, “COMPOUNDS” (priority 2021, published 2025)
Where “and” joins values, the source holds several entries; their conditions need not be identical. Equal values may be shown once. Read-outs that look alike come from different tables or passages of the source.

How the values were obtained:
5-HT2C receptor = biological target: T1, 5-HT2C receptor (Homo sapiens, UniProt P28335); experiment: cell-based; conditions: agonist activity, Ca2+ flux, HEK293 cells; for EC50: read-out: 5-HT2C EC50
T1 construct: host or cells: HEK293
T1 sequence (P28335 33-458): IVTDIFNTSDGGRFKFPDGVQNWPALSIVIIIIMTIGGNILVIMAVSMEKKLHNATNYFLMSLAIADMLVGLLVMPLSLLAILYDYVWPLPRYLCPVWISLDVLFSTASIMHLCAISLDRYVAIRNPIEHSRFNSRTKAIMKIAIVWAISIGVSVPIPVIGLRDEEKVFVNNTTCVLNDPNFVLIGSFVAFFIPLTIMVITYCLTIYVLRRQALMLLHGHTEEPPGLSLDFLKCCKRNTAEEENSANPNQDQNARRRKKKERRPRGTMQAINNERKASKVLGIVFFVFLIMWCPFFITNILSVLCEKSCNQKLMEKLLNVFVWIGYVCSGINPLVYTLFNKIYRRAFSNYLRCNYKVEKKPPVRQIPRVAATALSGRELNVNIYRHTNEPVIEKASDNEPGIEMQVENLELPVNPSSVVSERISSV

5-HT2A receptor = biological target: T2, 5-HT2A receptor (Homo sapiens, UniProt P28223); experiment: FLIPR Ca2+ flux functional assay, 5-HT2A; format: cell-based; conditions: agonist activity, Ca2+ flux, HEK293 cells; for EC50: read-out: 5-HT2A EC50
T2 construct: host or cells: HEK293

5-HT2B receptor = biological target: T3, 5-HT2B receptor (Homo sapiens, UniProt P41595); experiment: cell-based; conditions: agonist activity, Ca2+ flux, CHO-K1 cells; for EC50: read-out: 5-HT2B EC50
T3 construct: host or cells: CHO-K1

[1] = In vivo pharmacokinetics, plasma and brain exposure after IP dosing; parameters: species or system male C57BL/6 mice
Method: The systemic exposure of selected examples was studied in non-fasted male C57BL/6 mice weighing between 18.9-25.5 g. Mice had access to food and water ad libitum throughout the pre- and post-dose sampling period.
On the day of dosing, the formulation of each compound was prepared by dissolving solid compound in phosphate buffer saline (50 mM) using vortexing, creating colourless solutions (pH 6.4-6.5) for each compound.
Compounds were dosed to mice by IP injection (10 mL/kg dose volume via a 27G needle; n=9 mice per compound) and blood samples were collected at 5 and 30 min; 1, 2 and 4 h post-dose (n=3 mice per time point for each compound). A maximum of three blood samples were obtained from each mouse, with plasma samples being taken via submandibular bleed (approximately 120 μL). Once collected, blood samples were centrifuged immediately, supernatant plasma was removed, and stored at −80° C. until analysis by LCMS. In addition, at the 5 and 30 min and 4 h post-dose time points, the whole brain was rapidly removed from the carcass soon after the blood collection. The whole brains were blotted to remove excess blood, placed into pre-weighed polypropylene vials, and weighed. The brains were snap frozen in dry ice and subsequently stored frozen (−80° C.) until analysis.
Concentrations of test compound in plasma and tissue samples were determined using an LCMS/MS method validated for linearity, accuracy, precision, matrix factor and recovery (Table 2). Test compound standard solutions were diluted from a concentrated stock solution (32 mM in H2O) using 50% can in H2O (v/v) and a calibration curve was prepared in a matched matrix to the test samples.
Plasma: The plasma calibration curve was prepared by spiking aliquots of blank mouse plasma (25 μL) with test compound standard solutions (5 μL) and internal standard solution (5 μL of diazepam, 5 μg/mL in 50% acetonitrile in water). Test plasma samples (25 μL) were thawed, mixed, and then spiked with internal standard solution (5 μL). Plasma protein precipitation was performed by addition of acetonitrile (3-fold volume ratio) and thorough vortex mixing. Samples were centrifuged (RCF=9391×g) for 3 minutes and the supernatant (90 μL) was collected for analysis.
Tissue: Pre-weighed tissue samples (brain) were homogenised using a glass rod in buffer containing an EDTA/potassium fluoride solution (0.1 M/4 mg/mL) as a stabilisation cocktail to minimise the potential for ex vivo degradation (3 mL cocktail/g tissue). The tissue homogenate was briefly centrifuged (RCF=79×g) for 10 seconds to separate the foam layer before transferring an aliquot of the tissue homogenate (200 μL) to a fresh Eppendorf tube for sample extraction. Calibration standards were prepared by spiking blank brain homogenate (200 μL) with the solution standards (10 μL) and the internal standard (10 μL). Study samples were similarly prepared, except that acetonitrile (10 μL) was added instead of solution standards to maintain the same volume. Protein precipitation was carried out by the addition of a 3-fold volume of acetonitrile, followed by vortex mixing and centrifugation (RCF=9391×g) for 3 min to recover the supernatant for analysis.
Replicate analysis: Triplicate analytical replicate (ARs) samples were prepared similarly to the standards for each sample type at three concentrations (50, 500 and 2,000 ng/ml) and repeat injections of these ARs were included throughout the analytical run to assess assay performance. The extraction of the test compound from the standards and ARs were conducted as described above.

[2] = 0.083 h, IP 10 mg/kg, individual mouse, 10 mg/kg
[3] = 0.5 h, IP 10 mg/kg, individual mouse, 10 mg/kg
[4] = 4 h, IP 10 mg/kg, individual mouse, 10 mg/kg
[5] = mouse, plasma, male C57BL/6 mice, IP 10 mg/kg

T3 sequence (P41595 whole entry): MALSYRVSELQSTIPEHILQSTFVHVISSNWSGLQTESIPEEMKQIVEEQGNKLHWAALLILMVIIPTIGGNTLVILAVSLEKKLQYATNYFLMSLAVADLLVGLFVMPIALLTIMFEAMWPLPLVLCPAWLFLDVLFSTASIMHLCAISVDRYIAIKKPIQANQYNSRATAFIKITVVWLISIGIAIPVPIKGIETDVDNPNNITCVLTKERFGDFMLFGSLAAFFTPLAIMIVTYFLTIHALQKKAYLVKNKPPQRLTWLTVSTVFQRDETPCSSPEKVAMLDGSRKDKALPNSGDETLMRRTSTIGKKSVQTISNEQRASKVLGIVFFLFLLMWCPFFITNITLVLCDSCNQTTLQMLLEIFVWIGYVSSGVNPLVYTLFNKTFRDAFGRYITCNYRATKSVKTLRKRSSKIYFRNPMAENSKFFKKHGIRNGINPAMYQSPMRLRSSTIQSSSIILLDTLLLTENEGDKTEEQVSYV
T2 sequence (P28223 whole entry): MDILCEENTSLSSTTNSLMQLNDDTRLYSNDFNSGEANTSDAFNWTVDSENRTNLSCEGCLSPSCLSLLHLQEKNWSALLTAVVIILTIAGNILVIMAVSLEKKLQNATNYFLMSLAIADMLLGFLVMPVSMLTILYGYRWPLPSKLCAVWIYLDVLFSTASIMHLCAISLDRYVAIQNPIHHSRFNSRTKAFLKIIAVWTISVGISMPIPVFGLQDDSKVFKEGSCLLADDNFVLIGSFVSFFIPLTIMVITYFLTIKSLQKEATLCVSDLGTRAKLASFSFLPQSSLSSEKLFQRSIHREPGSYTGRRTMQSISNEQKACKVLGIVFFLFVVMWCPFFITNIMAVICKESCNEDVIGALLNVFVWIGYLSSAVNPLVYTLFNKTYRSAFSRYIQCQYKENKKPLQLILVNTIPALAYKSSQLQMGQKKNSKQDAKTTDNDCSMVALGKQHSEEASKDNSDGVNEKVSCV

CCN(C)CCc1c[nH]c2cc(C)c(OC)cc12 [Example P-42, N-ethyl-2-(5-methoxy-6-methyl-1H-indol-3-yl)-N-methylethan-1-amine]
Emax (5-HT2C receptor): 85.8% | EC50 (5-HT2C receptor): 68.5 nM | Emax (5-HT2A receptor): 88.2% | EC50 (5-HT2A receptor): 26.5 nM | Emax (5-HT2B receptor): 8.39% | EC50 (5-HT2B receptor): > 10000 nM | B:P Ratio, Individual [1, 2]: 3.8 and 7.1 and 2.0 | Plasma Concentration, Individual [1, 2]: 1760 nM and 3440 nM | concentration at 0.5 h ([1]; 0.083 h, IP 10 mg/kg, individual mouse, 10 mg/kg, read-out: Brain Parenchyma Concentration, Individual): 12600 nM and 7010 nM | B:P Ratio, Individual [1, 3]: 20 and 11 | Plasma Concentration, Individual [1, 3]: 1880 nM and 1820 nM | concentration at 0.5 h ([1]; 0.5 h, IP 10 mg/kg, individual mouse, 10 mg/kg, read-out: Brain Parenchyma Concentration, Individual): 37300 nM and 19900 nM | B:P Ratio, Individual [1, 4]: 18 and 14 and 8.2 | Plasma Concentration, Individual [1, 4]: 38.4 nM and 20.9 nM | concentration at 0.5 h ([1]; 4 h, IP 10 mg/kg, individual mouse, 10 mg/kg, read-out: Brain Parenchyma Concentration, Individual): 408 nM and 530 nM and 171 nM | concentration at 0.083 h ([1]; male, C57BL/6, mouse, brain, ip, 10 mg/kg, 0.083 h, individual mouse, read-out: Brain Parenchyma Concentration, Individual): 10100 nM | concentration at 0.083 h ([1]; male, C57BL/6, mouse, brain, ip, 10 mg/kg, 0.083 h, n = 3, read-out: Brain Parenchyma Concentration, Mean ± SD): 9900 ± 2790 nM | concentration at 0.5 h ([1]; male, C57BL/6, mouse, brain, ip, 10 mg/kg, 0.5 h, individual mouse, read-out: Brain Parenchyma Concentration, Individual): 21300 nM | concentration at 0.5 h ([1]; male, C57BL/6, mouse, brain, ip, 10 mg/kg, 0.5 h, n = 3, read-out: Brain Parenchyma Concentration, Mean ± SD): 26200 ± 9680 nM | concentration at 4 h ([1]; male, C57BL/6, mouse, brain, ip, 10 mg/kg, 4 h, n = 3, read-out: Brain Parenchyma Concentration, Mean ± SD): 370 ± 182 nM | Kp at 0.083 h ([1]; male, C57BL/6, mouse, brain/plasma, ip, 10 mg/kg, 0.083 h, n = 3, read-out: B:P Ratio, Mean ± SD): 4.3 ± 2.6 | Kp at 0.5 h ([1]; male, C57BL/6, mouse, brain/plasma, ip, 10 mg/kg, 0.5 h, individual mouse, read-out: B:P Ratio, Individual): 18 | Kp at 0.5 h ([1]; male, C57BL/6, mouse, brain/plasma, ip, 10 mg/kg, 0.5 h, n = 3, read-out: B:P Ratio, Mean ± SD): 16 ± 4.6 | Kp at 4 h ([1]; male, C57BL/6, mouse, brain/plasma, ip, 10 mg/kg, 4 h, n = 3, read-out: B:P Ratio, Mean ± SD): 13 ± 5 | concentration at 0.083 h ([1]; male, C57BL/6, mouse, plasma, ip, 10 mg/kg, 0.083 h, individual mouse, read-out: Plasma Concentration, Individual): 2650 nM | concentration at 0.083 h ([1]; male, C57BL/6, mouse, plasma, ip, 10 mg/kg, 0.083 h, n = 3, read-out: Plasma Concentration, Mean ± SD): 2620 ± 840 nM | concentration at 0.5 h ([1]; male, C57BL/6, mouse, plasma, ip, 10 mg/kg, 0.5 h, individual mouse, read-out: Plasma Concentration, Individual): 1200 nM | concentration at 0.5 h ([1]; male, C57BL/6, mouse, plasma, ip, 10 mg/kg, 0.5 h, n = 3, read-out: Plasma Concentration, Mean ± SD): 1640 ± 376 nM | concentration at 4 h ([1]; male, C57BL/6, mouse, plasma, ip, 10 mg/kg, 4 h, individual mouse, read-out: Plasma Concentration, Individual): 22.5 nM | concentration at 4 h ([1]; male, C57BL/6, mouse, plasma, ip, 10 mg/kg, 4 h, n = 3, read-out: Plasma Concentration, Mean ± SD): 27.3 ± 9.7 nM | Cmax [1, 5]: 2620 nM | Tmax [1, 5]: 4.98 min | AUC(0-inf) ([1]; mouse, plasma, male C57BL/6 mice, IP 10 mg/kg, read-out: Plasma AUC0-inf): 2.36 µM·h | half-life ([1]; mouse, male C57BL/6 mice, IP 10 mg/kg, plasma, read-out: Apparent T1/2 (converted)): 36 min

CCN(C)CCc1c[nH]c2ccc(C)c(O)c12 [Example P-64, 3-(2-(ethyl(methyl)amino)ethyl)-5-methyl-1H-indol-4-ol]
Emax (5-HT2C receptor): 61% | EC50 (5-HT2C receptor): 141 nM | Emax (5-HT2A receptor): 79% | EC50 (5-HT2A receptor): 62.2 nM | Emax (5-HT2B receptor): 2.42% | EC50 (5-HT2B receptor): ≥ 10000 nM
